Earlier results in patent US5747458A, “Urokinase receptor ligands” (Chiron Corporation, priority 1995, dated 1998).

Assays:
uPA:uPAR interaction = uPA:uPAR interaction (Homo sapiens, UniProt Q03405)
uPAR = uPAR (Homo sapiens, UniProt Q03405)
uPAR, sequence (Q03405 23-335, species assumed): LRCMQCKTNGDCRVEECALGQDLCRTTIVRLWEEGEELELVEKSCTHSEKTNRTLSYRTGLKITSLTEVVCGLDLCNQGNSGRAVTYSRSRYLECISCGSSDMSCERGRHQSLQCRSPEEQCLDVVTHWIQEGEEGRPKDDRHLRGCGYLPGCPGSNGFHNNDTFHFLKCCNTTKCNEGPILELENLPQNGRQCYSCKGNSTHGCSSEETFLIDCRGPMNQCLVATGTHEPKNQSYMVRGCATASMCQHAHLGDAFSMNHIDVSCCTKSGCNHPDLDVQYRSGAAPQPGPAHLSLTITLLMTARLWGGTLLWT

uPA:uPAR interaction, sequence (Q03405 23-305 limits assumed): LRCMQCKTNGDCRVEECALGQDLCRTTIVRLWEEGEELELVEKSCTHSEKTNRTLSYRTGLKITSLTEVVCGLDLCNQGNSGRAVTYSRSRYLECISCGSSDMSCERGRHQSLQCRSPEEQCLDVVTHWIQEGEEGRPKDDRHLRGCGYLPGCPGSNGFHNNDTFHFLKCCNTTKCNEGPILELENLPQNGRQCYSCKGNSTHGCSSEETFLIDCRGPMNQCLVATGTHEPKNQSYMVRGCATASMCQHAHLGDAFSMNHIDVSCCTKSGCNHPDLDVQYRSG

affinity relative to intact ATF (fold less) (uPAR; compared with intact ATF)	Kd (uPAR; read-out: affinity for uPAR) [nM]	Compound	effective concentration for inhibiting the uPA:uPAR interaction (uPA:uPAR interaction)
–	–	O=S(=O)(O)c1cccc2cccc(Nc3ccccc3)c12 [8-anilinonaphthalene sulfonic acid]	effective only at micromolar concentrations
–	–	Cc1ccc(C(=O)Nc2ccc(S(=O)(=O)O)c3cc(S(=O)(=O)O)cc(S(=O)(=O)O)c23)cc1NC(=O)c1cccc(NC(=O)Nc2cccc(C(=O)Nc3cc(C(=O)Nc4ccc(S(=O)(=O)O)c5cc(S(=O)(=O)O)cc(S(=O)(=O)O)c45)ccc3C)c2)c1 [suramin]	effective only at micromolar concentrations
about 100 fold	40	uPA12-32: critical binding domain alone, residues 12-32 of the EGF-like domain of uPA (DCLNGGTCVSNKYFSNIHWCN; UniProt P00749 32-52, looked up, fragment)	–
